Here are results for five molecules from patent US11453703B2, “Heterotandem bicyclic peptide complexes” (BicycleTX Limited, priority 2018, dated 2022).

Broadly, the EC50 is the midpoint of the concentration-response curve. A higher EC50 goes with a need for much substance.

This series addresses CD137 (Homo sapiens, UniProt Q07011). Description: CD137 reporter assay, co-culture with Nectin-4 tumour cells.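 For all read-outs here: jurkat reporter cells co-cultured with tumour cells and test article for 6 h, luminescence signal relative to Jurkat plus tumour cells lacking test article.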 Also noted: host or cells: Jurkat reporter cells. The conditions noted are these: for fold induction / Fold Induction over Background: tumour target Nectin4, co-culture with H1376, 6 h; for fold induction: read-out: Fold Induction over Background. It is filed as cell-based.

The structures appear in SMILES notation.

Chain of CD137 (Q07011 24-255): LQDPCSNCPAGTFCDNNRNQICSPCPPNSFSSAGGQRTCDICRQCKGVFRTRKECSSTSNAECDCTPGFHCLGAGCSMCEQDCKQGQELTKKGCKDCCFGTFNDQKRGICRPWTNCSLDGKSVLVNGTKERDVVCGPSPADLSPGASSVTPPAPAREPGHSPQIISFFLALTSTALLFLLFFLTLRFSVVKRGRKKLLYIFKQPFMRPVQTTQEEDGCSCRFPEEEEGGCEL

In the case of `CCCC[C@@H]1NC(=O)[C@H](Cc2ccc(O)cc2)NC(=O)[C@@H]2CCCN2C(=O)[C@H](CC(=O)O)NC(=O)[C@H](C)NC(=O)[C@H](Cc2ccccc2)NC(=O)[C@@H]2CSCCC(=O)N3CN(CN(C3)C(=O)CCSC[C@@H](C(=O)N[C@@H](CNC(=O)CCc3cn(CCOCCOCCOCCOCCOCCOCCOCCOCCOCCOCCNC(=O)N[C@H]4CSCCC(=O)N5CN6CN(C5)C(=O)CCSC[C@H](NC(=O)[C@@H](CC(=O)O)NC(=O)[C@H](Cc5cccc7ccccc57)NC(=O)[C@@H]5CCCN5C4=O)C(=O)N[C@@H](CCSC)C(=O)N[C@@H](CCCCNC(=N)N)C(=O)N[C@@H](CC(=O)O)C(=O)N[C@@H](Cc4c[nH]c5ccccc45)C(=O)N[C@@H](CO)C(=O)N[C@@H]([C@@H](C)O)C(=O)N4CCC[C@H]4C(=O)N4C[C@H](O)C[C@H]4C(=O)N[C@@H](Cc4c[nH]c5ccccc45)C(=O)N[C@H](C(N)=O)CSCCC6=O)nn3)C(N)=O)NC1=O)C(=O)CCSC[C@H](NC(=O)[C@H](C)NC(C)=O)C(=O)N[C@@H]([C@@H](C)CC)C(=O)N[C@@H](CCC(=O)O)C(=O)N[C@@H](CCC(=O)O)C(=O)NCC(=O)N[C@@H](CCC(N)=O)C(=O)N[C@@H](Cc1ccc(O)cc1)C(=O)N2` [BCY9399], the fold induction worked out at 13.

For the molecule `CCCC[C@@H]1NC(=O)[C@H](Cc2ccc(O)cc2)NC(=O)[C@@H]2CCCN2C(=O)[C@H](CC(=O)O)NC(=O)[C@H](C)NC(=O)[C@H](Cc2ccccc2)NC(=O)[C@@H]2CSCCC(=O)N3CN(CN(C3)C(=O)CCSC[C@@H](C(=O)N[C@@H](CNC(=O)CCc3cn(CCOCCOCCOCCOCCOCCOCCOCCOCCOCCOCCOCCOCCOCCOCCOCCOCCOCCOCCOCCOCCOCCOCCOCCNC(=O)N[C@H]4CSCCC(=O)N5CN6CN(C5)C(=O)CCSC[C@H](NC(=O)[C@@H](CC(=O)O)NC(=O)[C@H](Cc5cccc7ccccc57)NC(=O)[C@@H]5CCCN5C4=O)C(=O)N[C@@H](CCSC)C(=O)N[C@@H](CCCCNC(=N)N)C(=O)N[C@@H](CC(=O)O)C(=O)N[C@@H](Cc4c[nH]c5ccccc45)C(=O)N[C@@H](CO)C(=O)N[C@@H]([C@@H](C)O)C(=O)N4CCC[C@H]4C(=O)N4C[C@H](O)C[C@H]4C(=O)N[C@@H](Cc4c[nH]c5ccccc45)C(=O)N[C@H](C(N)=O)CSCCC6=O)nn3)C(N)=O)NC1=O)C(=O)CCSC[C@H](NC(=O)[C@H](C)NC(C)=O)C(=O)N[C@@H]([C@@H](C)CC)C(=O)N[C@@H](CCC(=O)O)C(=O)N[C@@H](CCC(=O)O)C(=O)NCC(=O)N[C@@H](CCC(N)=O)C(=O)N[C@@H](Cc1ccc(O)cc1)C(=O)N2` [BCY9400], the fold induction came out at 13. With `CCCC[C@@H]1NC(=O)[C@H](Cc2ccc(O)cc2)NC(=O)[C@@H]2CCCN2C(=O)[C@H](CC(=O)O)NC(=O)[C@H](C)NC(=O)[C@H](Cc2ccccc2)NC(=O)[C@@H]2CSCCC(=O)N3CN(CN(C3)C(=O)CCSC[C@@H](C(=O)N[C@@H](CNC(=O)CCc3cn(CCCNC(=O)CN(C)C(=O)CN(C)C(=O)CN(C)C(=O)CN(C)C(=O)CN(C)C(=O)CCOCCOCCOCCOCCOCCOCCOCCOCCOCCOCCOCCOCCOCCOCCOCCNC(=O)N[C@H]4CSCCC(=O)N5CN6CN(C5)C(=O)CCSC[C@H](NC(=O)[C@@H](CC(=O)O)NC(=O)[C@H](Cc5cccc7ccccc57)NC(=O)[C@@H]5CCCN5C4=O)C(=O)N[C@@H](CCSC)C(=O)N[C@@H](CCCCNC(=N)N)C(=O)N[C@@H](CC(=O)O)C(=O)N[C@@H](Cc4c[nH]c5ccccc45)C(=O)N[C@@H](CO)C(=O)N[C@@H]([C@@H](C)O)C(=O)N4CCC[C@H]4C(=O)N4C[C@H](O)C[C@H]4C(=O)N[C@@H](Cc4c[nH]c5ccccc45)C(=O)N[C@H](C(N)=O)CSCCC6=O)nn3)C(N)=O)NC1=O)C(=O)CCSC[C@H](NC(=O)[C@H](C)NC(C)=O)C(=O)N[C@@H]([C@@H](C)CC)C(=O)N[C@@H](CCC(=O)O)C(=O)N[C@@H](CCC(=O)O)C(=O)NCC(=O)N[C@@H](CCC(N)=O)C(=O)N[C@@H](Cc1ccc(O)cc1)C(=O)N2` [BCY9407], the EC50 was 3.4 nM and the “Fold Induction over Background” value was found to be 29 fold.

Turning to `CCCC[C@@H]1NC(=O)[C@H](Cc2ccc(O)cc2)NC(=O)[C@@H]2CCCN2C(=O)[C@H](CC(=O)O)NC(=O)[C@H](C)NC(=O)[C@H](Cc2ccccc2)NC(=O)[C@@H]2CSCCC(=O)N3CN(CN(C3)C(=O)CCSC[C@@H](C(=O)N[C@@H](CNC(=O)CCOCCOCCOCCOCCOCCOCCOCCOCCOCCOCCOCCOCCOCCOCCOCCOCCOCCOCCOCCOCCOCCOCCOCCOCCOCCC(=O)N[C@H]3CSCCC(=O)N4CN5CN(C4)C(=O)CCSC[C@H](NC(=O)[C@@H](CC(=O)O)NC(=O)[C@H](Cc4cccc6ccccc46)NC(=O)[C@@H]4CCCN4C3=O)C(=O)N[C@@H](CCSC)C(=O)N[C@@H](CCCCNC(=N)N)C(=O)N[C@@H](CC(=O)O)C(=O)N[C@@H](Cc3c[nH]c4ccccc34)C(=O)N[C@@H](CO)C(=O)N[C@@H]([C@@H](C)O)C(=O)N3CCC[C@H]3C(=O)N3C[C@H](O)C[C@H]3C(=O)N[C@@H](Cc3c[nH]c4ccccc34)C(=O)N[C@H](C(N)=O)CSCCC5=O)C(N)=O)NC1=O)C(=O)CCSC[C@H](NC(=O)[C@H](C)NC(C)=O)C(=O)N[C@@H]([C@@H](C)CC)C(=O)N[C@@H](CCC(=O)O)C(=O)N[C@@H](CCC(=O)O)C(=O)NCC(=O)N[C@@H](CCC(N)=O)C(=O)N[C@@H](Cc1ccc(O)cc1)C(=O)N2` [BCY9759], the “Fold Induction over Background” value came out at 15 fold. As for `CCCC[C@@H]1NC(=O)[C@H](Cc2ccc(O)cc2)NC(=O)[C@@H]2CCCN2C(=O)[C@H](CC(=O)O)NC(=O)[C@H](C)NC(=O)[C@H](Cc2ccccc2)NC(=O)[C@@H]2CSCCC(=O)N3CN(CN(C3)C(=O)CCSC[C@@H](C(=O)N[C@@H](CNC(=O)CCc3cn(CCOCCOCCOCCOCCOCCC(=O)N[C@H]4CSCCC(=O)N5CN6CN(C5)C(=O)CCSC[C@H](NC(=O)[C@@H](CC(=O)O)NC(=O)[C@H](Cc5cccc7ccccc57)NC(=O)[C@@H]5CCCN5C4=O)C(=O)N[C@@H](CCSC)C(=O)N[C@@H](CCCCNC(=N)N)C(=O)N[C@@H](CC(=O)O)C(=O)N[C@@H](Cc4c[nH]c5ccccc45)C(=O)N[C@@H](CO)C(=O)N[C@@H]([C@@H](C)O)C(=O)N4CCC[C@H]4C(=O)N4C[C@H](O)C[C@H]4C(=O)N[C@@H](Cc4c[nH]c5ccccc45)C(=O)N[C@H](C(N)=O)CSCCC6=O)nn3)C(N)=O)NC1=O)C(=O)CCSC[C@H](NC(C)=O)C(=O)N[C@@H](CC(C)(C)C)C(=O)N1CCC[C@H]1C(=O)N[C@@H](CCC(=O)O)C(=O)N[C@H](C)C(=O)N1CCC[C@H]1C(=O)N[C@@H](Cc1ccc(O)cc1)C(=O)N2` [BCY10573], the EC50 came to 0.9 nM and the “Fold Induction over Background” value is 55 fold.
